Measurements from patent US10472395B2, “Cyclic peptide analogs and conjugates thereof” (Sirenas LLC, priority 2015, dated 2019).
Where two headings read alike, the source gives them in different places. Numbered stars: 1 amine (or outer) side, 2 acyl side, 3 side chain; on linkers, the order of the positions; unused ones are H or OH. Bridge positions count the residues as written; N and C are the ends. Square brackets hold non-standard residues; d marks the D form. Peptide text beside a SMILES is read from it. X12 = CC/C=C(\C)[C@@H](O[*:2])[C@@H](C)[C@@H](O)C/C=C(\C)C(=O)[*:1]; Hmp(2R,3S) = CC[C@H](C)[C@@H](O)C(=O)O; dNMeL = CN[C@H](CC(C)C)C(=O)O; NMeA = CN[C@@H](C)C(=O)O; Sar = CNCC(=O)O

Tests used:
HeLa S3 cells = settings: K. Suenaga et al., Bioorg. Med. Chem. Lett. 2008, 18, 3902-3905; cited from earlier work
HCC1954 cells = assay: Inhibitory response of test compounds against HCC1954 cells (method analogous to BT-474); type: cell-based
Protocol: (§1) BT-474 human mammary gland ductal carcinoma cells were seeded in a clear polystyrene 96-well microculture plate (Corning® Costar® 96-well flat bottom plate, Cat.#3997) in a total volume of 90 μL/well. After 24 hours of incubation in a humidified incubator at 37° C. with 5% CO2 and 95% air, 10 μL of 10×, serially diluted test agents in growth medium were added to each well (10 pt dose response curve, highest concentration 10 μM of test agent). After 72 hours of culture in a humidified incubator at 37° C., in an atmosphere of 5% CO2 and 95% air, the plated cells and Cell Titer-Glo® (Promega G7571) reagents were brought to room temperature to equilibrate for 30 minutes. 100 μL of Cell Titer-Glo® reagent was added to each well. The plate was shaken for two minutes and then left to equilibrate for ten minutes. The media/Cell Titer-Glo® reagent was transferred to a white polystyrene 96-well microculture plate (Corning® Costar® 96-well flat bottom plate, Cat.#3917) before reading luminescence on a Tecan GENios microplate reader.
(§2) Percent inhibition of cell growth was calculated relative to untreated control wells. The IC50 value for the test agents was determined using Prism 6.05 by curve-fitting of the data using the following four parameter-logistic equation:
(§3) [formula] where Top is the maximal % of control absorbance, Bottom is the minimal % of control absorbance at the highest agent concentration, Y is the % of control absorbance, X is the agent concentration, IC50 is the concentration of agent that inhibits cell growth by 50% compared to the control cells, and n is the slope of the curve.
Inhibitory response of test compounds against HCC1954 cells was determined using a method analogous to that used for BT-474 cells.

[1] = tested on: BT-474 human mammary gland ductal carcinoma cells; assay: Inhibitory response of test compounds against BT-474 cells (Cell Titer-Glo, 72 h); type: cell-based
Protocol: as §1, §2, §3

[2] = tested on: several cancer cell lines; settings: Y. Nakao et al., J. Nat. Prod. 2004, 67, 1332-1340; cited from earlier work

CC/C=C(\C)[C@H]1OC(=O)[C@H](C)N(C)C(=O)[C@H](C(C)C)NC(=O)CN(C)C(=O)[C@@H](CC(C)C)N(C)C(=O)[C@H](C(C)C)NC(=O)[C@@H]([C@@H](C)CC)OC(=O)/C(C)=C/C[C@H](O)[C@@H]1C [Aurilide, aurilide] ([Hmp(2R,3S)]V[dNMeL][Sar]V[NMeA]; linker N-C via X12)
cytotoxicity against HeLa S3 cells (HeLa S3 cells): potent cytotoxicity

C/C=C(\C)[C@H]1OC(=O)[C@@H](C)NC(=O)[C@H]([C@H](C)CC)NC(=O)CN(C)C(=O)[C@@H](Cc2ccc(Cl)cc2)N(C)C(=O)[C@H](CCCCN)NC(=O)[C@@H](CC(C)C)OC(=O)/C(C)=C/CC[C@@H]1C [Compound 118]
IC50 (HCC1954 cells; Homo sapiens): 200 to 10000 nM | IC50 ([1]; Homo sapiens): 200 to 10000 nM

C/C=C(\C)[C@H]1OC(=O)[C@@H](C)NC(=O)[C@H]([C@H](C)CC)NC(=O)CN(C)C(=O)[C@@H](Cc2ccc(Cl)cc2)N(C)C(=O)[C@H](CCCCNC(=O)OC(C)(C)C)NC(=O)[C@@H](CC(C)C)OC(=O)/C(C)=C/CC[C@@H]1C [Compound 119]
IC50 (HCC1954 cells; Homo sapiens): < 20 nM | IC50 ([1]; Homo sapiens): < 20 nM

C/C=C(\C)[C@H]1OC(=O)[C@@H](C)NC(=O)[C@H](C(C)CC)NC(=O)CN(C)C(=O)[C@@H](Cc2ccccc2)N(C)C(=O)[C@H](C)NC(=O)[C@@H](CC(C)C)OC(=O)/C(C)=C/C[C@H](CC(=O)NCCOCCOCCOCCO)[C@@H]1C (some centres unmarked) [Compound 122]
IC50 (HCC1954 cells; Homo sapiens): 20 to 200 nM | IC50 ([1]; Homo sapiens): < 20 nM

C/C=C(\C)[C@H]1OC(=O)[C@@H](C)NC(=O)[C@H](C(C)CC)NC(=O)CN(C)C(=O)[C@@H](Cc2ccccc2)N(C)C(=O)[C@H](C)NC(=O)[C@@H](CC(C)C)OC(=O)/C(C)=C/C[C@H](OC(=O)NCCO)[C@@H]1C (some centres unmarked) [Compound 123]
IC50 (HCC1954 cells; Homo sapiens): < 20 nM | IC50 ([1]; Homo sapiens): < 20 nM

C/C=C(\C)[C@H]1OC(=O)[C@@H](C)NC(=O)[C@H](C(C)CC)NC(=O)CN(C)C(=O)[C@@H](Cc2c[nH]c3ccccc23)N(C)C(=O)[C@H](C)NC(=O)[C@@H](CC(C)C)OC(=O)/C(C)=C/C[C@H](O)[C@@H]1C (some centres unmarked) [Compound 125]
IC50 (HCC1954 cells; Homo sapiens): 20 to 200 nM | IC50 ([1]; Homo sapiens): < 20 nM

C/C=C(\C)[C@H]1OC(=O)[C@@H](C)NC(=O)[C@H](C(C)CC)NC(=O)CN(C)C(=O)[C@@H](Cc2ccccc2)N(C)C(=O)[C@H](C)NC(=O)[C@@H](CC(C)C)OC(=O)/C(C)=C/C[C@H](OC(=O)NCCCOCCOCCOCCCNC(=O)CCSSc2ccccn2)[C@@H]1C (some centres unmarked) [Compound L12]
IC50 (HCC1954 cells): > 10000 nM | IC50 [1]: 200 to 10000 nM

C/C=C(\C)[C@H]1OC(=O)[C@@H](C)NC(=O)[C@H](C(C)CC)NC(=O)CN(C)C(=O)[C@@H](Cc2ccccc2)N(C)C(=O)[C@H](C)NC(=O)[C@@H](CC(C)C)OC(=O)/C(C)=C/C[C@H](O)[C@@H]1C (some centres unmarked) [Kulo-2, kulo-2, reference compound]
cytotoxicity against several cancer cell lines [2]: potent cytotoxicity | IC50 (HCC1954 cells; Homo sapiens): < 20 nM | IC50 ([1]; Homo sapiens): < 20 nM | IC50 ([1]; Homo sapiens, 72 h, Cell Titer-Glo): 1.76 nM
